Assay results taken from patent US5206220A (Research Corporation Technologies, Inc., priority 1991, dated 1993).
≈ marks a conversion by molar mass, not a printed value. Where “and” joins values, the source holds several entries; their conditions need not be identical. Equal entries are not always repeated. Where two headings read alike, the source gives them in different places. Peptide text beside a SMILES is read from it.

What was measured:
[1] = system: cells; settings: cited from earlier work
[2] = storage in aqueous solution, diketopiperazine formation; cited from earlier work
[3] = rats, after 24 h, cited from earlier work
[4] = cited from earlier work
[5] = cited from earlier work; remark: listed apart in the source
[6] = rats, 0.5 mmol/kg; same value at longer times; cited from earlier work
[7] = administered for TPN; cited from earlier work
[8] = cited from earlier work; remark: listed apart in the source
[9] = γ-GluGln stability in Aminosyn-PF 10%; format: physicochemical; settings: sterile, room temperature, one month, 4.5 and 9 months
Method: (§1) Sci. 18:233-236] or accomplished by standard amino acid analysis techniques.
To determine the stability of γ-GluGln under typical storage conditions, γ-GluGln was added to Aminosyn-PF 10% under sterile conditions and left at room temperature.

[10] = Clearance of γ-GluGln from plasma, release of plasma glutamine; format: in vivo, mice; settings: for Glutamine Concentration (plasma), individual mice / Glutamine Concentration (plasma), Mean + Standard Error: 29 μmoles γ-GluGln i.v.; for Glutamine Concentration (plasma), Mean + Standard Error: N = 6
Method: as §1
Mice were injected with 29 μmoles of γ-GluGln via the external jugular vein. Control animals were injected with an equal volume of saline. Blood was sampled at 10 min. and at 60 min after injection.

[11] = Stability of γ-GluTyr in a TPN amino acid solution; format: physicochemical; settings: equal volumes 1.8 mM γ-GluTyr and Aminosyn-PF 10%, pH 5.5, ultrafiltered, room temperature, nine-month period, HPLC
Method: B. In a TPN amino acid solution: Equal volumes of 1.8 mM γ-GluTyr and Aminosyn-PF 10% (Abbott Laboratories) were mixed and the pH was adjusted to 5.5. The mixture thus contained similar concentrations of the peptide and of several amino acids, including phenylalanine and histidine. A sample was taken for analysis, and the remainder of the solution was sterilized by ultrafiltration and stored at room temperature (typical storage conditions for TPN amino acid solutions). Samples for analysis were also taken at intervals over a nine-month period. All samples were analyzed by HPLC as described above.

[12] = Clearance of γ-GluTyr from plasma after i.v. injection; format: in vivo, mice
Method: Injections of 20 μl of 140 mM γ-GluTyr (2.8 μmol) were made in the external jugular vein of 30-40 g mice. The amount of γ-GluTyr was measured in the plasma at 10 min and 60 min post-injection in each animal.

[13] = Distribution of γ-GluTyr in urine and plasma; format: in vivo, mice
Method: Urine was collected from mice injected with γ-GluTyr to determine whether or not the peptide was excreted into the urine. Mice were anesthetized with pentobarbital and then injected with 20 μl 140 mM γ-GluTyr (2.8 μmol). No urine was voided during the 60-min experiment, during which time the mice remained anesthetized. At the end of the experiment, the urinary bladders were tied off, removed and blood was collected from the heart for analysis. At the end of 60 min, a maximum of 0.13% of the injected γ-GluTyr was excreted in the urine whereas the plasma contained 12-25 μM γ-GluTyr. If these mice are assumed to have a total plasma volume of 4 ml, then only about 4% of the injected γ-GluTyr remained in the plasma at 60 min post-injection.

[14] = biological target: T1, bovine kidney γ-GTase (Sigma Type II) (Bos taurus, UniProt G3N2D8); experiment: In vitro release of tyrosine from γ-GluTyr by γ-glutamyl transpeptidase; format: biochemical; settings: γ-GluTyr in Aminosyn-PF 10%, pH 7.4, monitored by HPLC
T1 construct: the solution treated with bovine kidney γ-GTase (Sigma Type II) at pH 7.4; purchased Sigma Type II; host or cells: bovine kidney (tissue-derived)
T1 sequence (G3N2D8 1-379 limits assumed): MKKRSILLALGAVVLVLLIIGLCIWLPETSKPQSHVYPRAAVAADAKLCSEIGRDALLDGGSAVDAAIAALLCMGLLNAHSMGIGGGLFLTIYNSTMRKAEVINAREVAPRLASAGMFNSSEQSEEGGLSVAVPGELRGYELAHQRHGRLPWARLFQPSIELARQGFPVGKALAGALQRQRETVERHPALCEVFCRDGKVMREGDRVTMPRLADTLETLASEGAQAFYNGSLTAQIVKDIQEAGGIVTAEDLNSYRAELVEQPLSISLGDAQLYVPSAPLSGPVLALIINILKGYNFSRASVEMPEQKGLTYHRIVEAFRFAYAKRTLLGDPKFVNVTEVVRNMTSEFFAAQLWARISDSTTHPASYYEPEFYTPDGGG
T1 sequence (G3N2D8 380-568 limits assumed): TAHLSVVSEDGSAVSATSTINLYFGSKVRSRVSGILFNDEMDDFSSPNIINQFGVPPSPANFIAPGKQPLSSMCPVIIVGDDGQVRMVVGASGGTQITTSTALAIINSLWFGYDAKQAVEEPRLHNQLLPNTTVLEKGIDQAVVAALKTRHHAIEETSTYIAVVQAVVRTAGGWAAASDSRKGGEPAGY
Method: The most likely route for metabolic degradation of γ-GluTyr involves the enzyme, γ-glutamyl transpeptidase (γ-GTase), a widely distributed enzyme in mammalian tissues. In an in vitro test of this hypothesis, γ-GluTyr was added to Aminosyn-PF 10% and the solution treated with bovine kidney γ-GTase (Sigma Type II) at pH 7.4.

[15] = biological target: T2, γ-GTase (Mus musculus, UniProt Q60928); experiment: Effects of inhibiting γ-GTase with acivicin in mice injected with γ-GluTyr; format: in vivo; settings: for Tyr (plasma) / Phe (plasma) / γ-GluTyr (plasma): 2.8 μmol γ-GluTyr i.v., 10 min postinjection; for γ-GluTyr excreted: lost in the urine at 60 min postinjection
T2 construct: from tissue; host or cells: live mice (whole animal; kidney named as a site of high activity)
T2 sequence (Q60928 1-379 limits assumed): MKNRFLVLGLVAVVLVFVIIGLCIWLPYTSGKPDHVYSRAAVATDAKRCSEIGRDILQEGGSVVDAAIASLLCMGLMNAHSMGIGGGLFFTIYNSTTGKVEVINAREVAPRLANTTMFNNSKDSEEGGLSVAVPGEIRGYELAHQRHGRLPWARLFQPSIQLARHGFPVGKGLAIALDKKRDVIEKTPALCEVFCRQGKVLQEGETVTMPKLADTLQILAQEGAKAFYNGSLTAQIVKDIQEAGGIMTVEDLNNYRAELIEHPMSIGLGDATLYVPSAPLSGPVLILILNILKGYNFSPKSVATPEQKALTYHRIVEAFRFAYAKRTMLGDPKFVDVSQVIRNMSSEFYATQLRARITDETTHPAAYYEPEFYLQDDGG
T2 sequence (Q60928 380-568 limits assumed): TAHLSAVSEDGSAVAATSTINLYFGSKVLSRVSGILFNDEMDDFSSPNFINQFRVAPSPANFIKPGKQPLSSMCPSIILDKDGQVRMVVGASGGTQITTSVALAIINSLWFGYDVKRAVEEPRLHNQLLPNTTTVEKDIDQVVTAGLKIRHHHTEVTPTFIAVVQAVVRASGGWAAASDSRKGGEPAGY
Method: To test the role of γ-GTase in degradation of γ-GluTyr in vivo an additional experiment was conducted. […] Control mice received saline rather than acivicin prior to intravenous injection of 2.8 μmol of γ-GluTyr. In test mice, an intraperitoneal injection of acivicin was made 90 min prior to the injection of 2.8 μmol γ-GluTyr. Plasma was sampled after 10 min and 60 min, and urine was collected after 60 min.
The kidney is generally unable to prevent the loss of intact peptides in the urine. Instead, peptides are hydrolyzed to free amino acids, which can then be salvaged by absorption into the bloodstream. […] When γ-GTase is inhibited by acivicin, unhydrolyzed peptide should be lost in the urine. The data in Table 5 are consistent with a role for γ-GTase in the hydrolysis of γ-GluTyr to prevent its excretion in the urine. When this enzyme is inhibited by acivicin, the amount of unhydrolyzed peptide which appears in the urine in 60 min increases markedly over peptide found in the urine of control mice.

[16] = mice, 20 μL 140 mM γ-GluTyr, 10 min postinjection

Which transport into cells [1] does the source give for `N[C@@H](CCC(=O)N[C@@H](CSSC[C@H](NC(=O)CC[C@H](N)C(=O)O)C(=O)O)C(=O)O)C(=O)O` [(γ-GluCys)2, N,N'-bis(γ-glutamyl)cystine] here?
The transport into cells was “are transported”.

For `C[C@H](N)C(=O)N[C@@H](CCC(N)=O)C(=O)O` [AlaGln, alanylglutamine] (H-Ala-Gln-OH), which “stability in aqueous solution” value [2] is on record?
The value was “unstable during prolonged storage in aqueous solution”.

With `C[C@H](N)C(=O)N[C@@H](Cc1ccc(O)cc1)C(=O)O` [AlaTyr, L-alanyl-L-tyrosine] (H-Ala-Tyr-OH) as the compound, how does the plasma tyrosine levels ([3]; 0.5 mmol/kg/day) read?
Its plasma tyrosine levels is “unchanged”.

And the plasma tyrosine levels ([3]; 2 mmol/kg/day)?
The plasma tyrosine levels was “increased two-fold”.

And the “stability in aqueous solution” value [2]?
The value was “unstable in aqueous solution”.

Which results are given for `Cl.N[C@@H](CS)C(=O)O` [Cysteine-HCl, Cysteine-hydrochloride]?
plasma ratio of cysteine to methionine (Cys/Met) ([4]; infants on TPN supplemented with L-cysteine-HCL): 0.6; adverse effect in TPN ([4]; some treated low-birth-weight infants): implicated in the production of acidosis

With `N[C@@H](CSSC[C@H](N)C(=O)O)C(=O)O` [Cystine] as the compound, how does the solubility in water [5] read?
The solubility in water was 10 µg/mL (≈ 41.6 µM).

For `N[C@@H](CCC(=O)N[C@@H](CS)C(=O)NCC(=O)O)C(=O)O` [GSH, gamma-glutamyl-cysteinylglycine, reference compound], which transport into cells [1] is on record?
Its transport into cells is “does not appear to be transported into cells”.

With `NCC(=O)N[C@@H](CCC(N)=O)C(=O)O` [GlyGln, glycylglutamine] (H-Gly-Gln-OH) as the compound, how does the “stability in aqueous solution” value [2] read?
The value was “unstable during prolonged storage in aqueous solution”.

For `NCC(=O)N[C@@H](Cc1ccc(O)cc1)C(=O)O` [GlyTyr, L-glycyl-L-tyrosine] (H-Gly-Tyr-OH), which “rise of plasma tyrosine levels compared with AlaTyr” value [6] is on record?
Its value is “did not increase as rapidly”.

What about the “stability in aqueous solution” value [2] of the same compound?
Its value is “unstable during storage in aqueous solution”.

With `CC(=O)N[C@@H](CSSC[C@H](NC(C)=O)C(=O)O)C(=O)O` [N,N'-bis-acetylcystine] as the compound, how does the urinary losses [7] read?
The urinary losses was “large urinary losses”.

With `CC(=O)N[C@@H](CS)C(=O)O` [NAcCys, N-acetylcysteine] as the compound, how does the “NAcCys levels (plasma)” value ([8]; four hours after administration (from 2)) read?
The value was 488 µmol/L.

What about the “plasma levels of cysteine” value ([8]; four hours after administration of 5 g cysteine in a 200 mg/ml solution as NAcCys (basal 207)) of the same compound?
The value was 134 µM.

What about the “administered NAcCys excreted in the urine” value ([8]; within 4 h) of the same compound?
Its value is 11%.

Which transport into cells [1] does the source give for `NC(CCC(=O)NC(CSSCC(N)C(=O)O)C(=O)O)C(=O)O` [γ-Glu(Cys)2, γ-L-glutamyl-L-cystine] here?
Its transport into cells is “are transported”.

What does the source list for `NC(=O)CC[C@H](NC(=O)CC[C@H](N)C(=O)O)C(=O)O` [γ-GluGln, gamma-L-glutamyl-L-glutamine]?
stability of γ-GluGln under typical storage conditions [9]: remained stable; Glutamine Concentration (plasma), individual mice ([10]; 10 min): 675 µM and 762 µM and 614 µM and 693 µM and 681 µM and 770 µM; Glutamine Concentration (plasma), Mean + Standard Error ([10]; 10 min): 699 ± 24 µM; Glutamine Concentration (plasma), individual mice ([10]; 60 min): 565 µM and 586 µM and 457 µM and 198 µM and 555 µM and 629 µM; Glutamine Concentration (plasma), Mean + Standard Error ([10]; 60 min): 498 ± 64 µM; mice with γ-GluGln detected in the plasma ([10]; 29 μmoles γ-GluGln via external jugular vein, 10 min): three of six; appearance of γ-GluGln in the urine ([10]; mice not pretreated with acivicin): did not appear in the urine

Which “levels of γ-GluTyr and tyrosine during storage” value [11] does the source give for `N[C@@H](CCC(=O)N[C@@H](Cc1ccc(O)cc1)C(=O)O)C(=O)O` [γ-GluTyr, gamma-L-glutamyl-L-tyrosine] here?
Its value is “unchanged”.

And the “clearance of γ-GluTyr from plasma” value ([12]; mice 30-40 g, 20 μl of 140 mM (2.8 μmol) external jugular vein, 10 min to 60 min post-injection)?
The value was 2.2 to 2.6 µM/min.

What about the “Plasma Phe” value [12, 16] of the same compound?
The value was 89 ± 8 µM.

What about the “Plasma Tyr” value [12, 16] of the same compound?
The value was 126 ± 14 µM.

What about the “increase of plasma concentration of tyrosine” value ([12]; mice, 40 μl of 140 mM γ-GluTyr, between 5 and 10 min post-injection) of the same compound?
Its value is 32%.

What about the “fall of plasma concentration of tyrosine” value ([12]; mice, 40 μl of 140 mM γ-GluTyr, between 10 and 60 min post-injection) of the same compound?
Its value is 32%.

And the “clearance rate of γ-GluTyr from plasma” value ([12]; mice, 40 μl of 140 mM, external jugular vein)?
The value was 6.8 µM/min.

And the “peptide hydrolyzed and available as free tyrosine and glutamic acid” value ([13]; 60 min post-injection)?
The value was “at least 96%”.

And the “injected γ-GluTyr remaining in the plasma” value ([13]; 60 min post-injection, assumed total plasma volume of 4 ml)?
Its value is “about 4%”.

And the “plasma γ-GluTyr” value ([13]; anesthetized mice, 2.8 μmol i.v., 60 min)?
Its value is 12 to 25 µM.

What about the “injected γ-GluTyr excreted in the urine” value ([13]; anesthetized mice, 2.8 μmol i.v., at the end of 60 min) of the same compound?
Its value is at most 0.13%.

And the “partitioning into red blood cells” value ([13]; previous studies)?
The value was “not partitioned into red blood cells”.

What about the “release of tyrosine from γ-GluTyr by the enzyme” value [14] of the same compound?
Its value is “released tyrosine”.

What about the “Tyr (plasma)” value ([15]; acivicin + (2 mg/30 g mouse i.p. 90 min before)) of the same compound?
The value was 96 ± 1 µM.

What about the “Phe (plasma)” value ([15]; acivicin +) of the same compound?
Its value is 96 ± 6 µM.

And the “γ-GluTyr (plasma)” value ([15]; acivicin +)?
Its value is 247 ± 17 µM.

What about the γ-GluTyr excreted ([15]; acivicin +) of the same compound?
Its γ-GluTyr excreted is 16-48 % of total.

What about the “Tyr (plasma)” value ([15]; acivicin - (saline)) of the same compound?
Its value is 126 ± 14 µM.

And the “Phe (plasma)” value ([15]; acivicin -)?
The value was 89 ± 8 µM.

And the “γ-GluTyr (plasma)” value ([15]; acivicin -)?
The value was 112 ± 15 µM.

And the γ-GluTyr excreted ([15]; acivicin -)?
The γ-GluTyr excreted was 0.05-0.19 % of total.
